Data from PMC4564189, “A Genetic Selection for dinB Mutants Reveals an Interaction between DNA Polymerase IV and the Replicative Polymerase That Is Required for Translesion Synthesis” (PLoS Genetics, 2015).
One block for each molecule: values may come before it.

How the values were obtained:
[1] = biological target: T1, Pol IV (E. coli DNA polymerase IV, DinB) (Escherichia coli, UniProt Q47155, T120P); assay: pre-steady-state single-nucleotide primer extension, […] gel assay; format: biochemical; details: apparent Kd for dNTP, kpol given as kcat, 200 nM DNA, 400 nM polymerase, 10 mM MgCl2, pH 7.5, 25°C
T1 construct: full-length, untagged as far as told, pET11a plasmid pRM112 (T7 promoter) and mutant derivatives, purified from E. coli; 351 residues
T1 sequence (Q47155 whole entry T120P): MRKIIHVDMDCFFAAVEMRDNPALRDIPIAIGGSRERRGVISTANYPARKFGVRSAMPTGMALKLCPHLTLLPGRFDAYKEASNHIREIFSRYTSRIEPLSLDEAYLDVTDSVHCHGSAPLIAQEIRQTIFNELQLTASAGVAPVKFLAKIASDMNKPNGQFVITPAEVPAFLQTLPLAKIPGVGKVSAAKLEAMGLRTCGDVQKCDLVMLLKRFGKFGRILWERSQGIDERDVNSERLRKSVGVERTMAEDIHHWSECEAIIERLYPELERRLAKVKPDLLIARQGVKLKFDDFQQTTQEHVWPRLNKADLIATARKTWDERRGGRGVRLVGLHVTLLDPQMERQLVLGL

[2] = biological target: T2, Pol IV (E. coli DNA polymerase IV, DinB) (Escherichia coli, UniProt Q47155); assay: as above; format: biochemical; details: apparent Kd for dNTP, kpol given as kcat, 200 nM DNA, 400 nM polymerase, 10 mM MgCl2, pH 7.5, 25°C
T2 construct: full-length, untagged as far as told, pET11a plasmid pRM112 (T7 promoter) and mutant derivatives, purified from E. coli; 351 residues
T2 sequence (Q47155 1-351): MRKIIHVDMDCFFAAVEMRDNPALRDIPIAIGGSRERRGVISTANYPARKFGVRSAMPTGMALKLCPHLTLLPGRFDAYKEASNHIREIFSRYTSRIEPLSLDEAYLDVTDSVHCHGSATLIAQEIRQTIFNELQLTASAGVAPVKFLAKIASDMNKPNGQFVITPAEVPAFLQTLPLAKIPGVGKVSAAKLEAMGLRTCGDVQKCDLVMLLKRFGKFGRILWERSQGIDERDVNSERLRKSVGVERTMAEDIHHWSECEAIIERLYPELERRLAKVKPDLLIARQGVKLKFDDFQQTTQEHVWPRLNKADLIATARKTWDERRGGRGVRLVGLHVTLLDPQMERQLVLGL

[3] = biological target: Pol III core complex (Pol IIIαεθ) (E. coli) (UniProt P10443)
[4] = undamaged template 13/20G (opposite dG)
[5] = undamaged template 13/20A (opposite dA)

Molecule: Nc1ccn([C@H]2C[C@H](O)[C@@H](COP(=O)(O)OP(=O)(O)OP(=O)(O)O)O2)c(=O)n1 [dCTP]
Kd [1, 4]: 14 ± 3.3 µM
Kd [2, 4]: > 300 µM

Molecule: Cc1cn([C@H]2C[C@H](O)[C@@H](COP(=O)(O)OP(=O)(O)OP(=O)(O)O)O2)c(=O)[nH]c1=O [dTTP]
Kd [1, 5]: 39 ± 9 µM
Kd [2, 5]: 207 ± 21 µM

Further lines, results first:

Kd ([1]; template 13/20Sp (opposite abasic site), above highest dNTP tested (500 μM range)): 460 ± 230 µM
Molecule: Nc1ncnc2c1ncn2[C@H]1C[C@H](O)[C@@H](COP(=O)(O)OP(=O)(O)OP(=O)(O)O)O1 [dATP]

Pol III processivity in the single-molecule primer extension assay; 900 nM Pol IV^CD (180-fold molar excess) with 5 nM Pol IIIαεθ, β clamp and τ3δδ'ψχ clamp loader (of the processivity without Pol IV^CD) [3]: 0.5
B1: Pol IV catalytic domain (Pol IV^CD; residues 1–230) (domain or fragment)
chain: MRKIIHVDMDCFFAAVEMRDNPALRDIPIAIGGSRERRGVISTANYPARKFGVRSAMPTGMALKLCPHLTLLPGRFDAYKEASNHIREIFSRYTSRIEPLSLDEAYLDVTDSVHCHGSATLIAQEIRQTIFNELQLTASAGVAPVKFLAKIASDMNKPNGQFVITPAEVPAFLQTLPLAKIPGVGKVSAAKLEAMGLRTCGDVQKCDLVMLLKRFGKFGRILWERSQGID
